According to patent US20230233569A1 (Revolution Medicines, Inc., priority 2020, published 2023):
Where two headings read alike, the source gives them in different places.

Columns and labels:
NRAS WT = NRAS WT (Homo sapiens, UniProt P01111+P62937); assay: Disruption of BRAF RBD interaction with Ras (FRET / MOA assay, with Cyclophilin A); type: biochemical; conditions: NRAS WT; read-out: NRAS WT FRET data IC50
How it was run: (§1)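 TR-FRET in 25 mM HEPES pH 7.3, 100 mM NaCl, 5 mM MgCl2, 0.1% BSA: 25 μM Cyclophilin A, 12.5 nM His6-Ras-GMPPNP, 50 nM GST-BRAF RBD with compound (10-point 3-fold series from 30 μM), 3 h at 25° C. Anti-His Eu/anti-GST APC added, 1.5 h more; IC50 from decreased FRET ratio versus DMSO.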

NRAS Q61K = NRAS Q61K (Homo sapiens, UniProt P01111+P62937, Q61K); assay: as above; type: biochemical; conditions: NRAS Q61K; read-out: NRAS Q61K FRET data IC50
Chain of NRAS Q61K (P01111 whole entry Q61K): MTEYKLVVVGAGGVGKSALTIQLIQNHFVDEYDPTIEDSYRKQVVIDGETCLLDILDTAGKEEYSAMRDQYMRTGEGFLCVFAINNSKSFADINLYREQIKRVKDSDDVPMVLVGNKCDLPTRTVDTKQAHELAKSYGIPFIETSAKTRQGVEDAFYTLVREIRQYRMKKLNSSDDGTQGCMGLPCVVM
Chain of NRAS Q61K (P62937 whole entry): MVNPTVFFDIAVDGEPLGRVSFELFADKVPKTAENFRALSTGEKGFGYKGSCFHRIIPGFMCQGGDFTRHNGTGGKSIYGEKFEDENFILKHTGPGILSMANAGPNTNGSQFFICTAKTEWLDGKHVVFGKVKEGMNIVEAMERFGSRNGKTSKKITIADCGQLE
How it was run: as §1

KRAS Q61H = KRAS Q61H (Homo sapiens, UniProt P01116+P62937, Q61H); assay: as above; type: biochemical; conditions: KRAS Q61H; read-out: KRAS Q61H FRET data IC50
Chain of KRAS Q61H (P01116 1-169 isoform P01116-2 Q61H limits assumed): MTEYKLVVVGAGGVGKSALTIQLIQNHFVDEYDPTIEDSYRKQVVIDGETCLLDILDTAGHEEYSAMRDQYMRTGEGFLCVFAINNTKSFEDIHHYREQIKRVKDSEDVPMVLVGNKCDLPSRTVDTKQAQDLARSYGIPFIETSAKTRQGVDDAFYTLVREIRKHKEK
Chain of KRAS Q61H (P62937 whole entry): as the sequence (P62937 whole entry) above
How it was run: as §1

NRAS Q61R = NRAS Q61R (Homo sapiens, UniProt P01111+P62937, Q61R); assay: as above; type: biochemical; conditions: NRAS Q61R; read-out: NRAS Q61R FRET data IC50
Chain of NRAS Q61R (P01111 whole entry Q61R): as the sequence (P01111 whole entry Q61K) above, with K61R counted along it
Chain of NRAS Q61R (P62937 whole entry): as the sequence (P62937 whole entry) above
How it was run: as §1

NCI-H358 (K-Ras G12C) = assay: CellTiter-Glo cell viability assay, 5-day treatment; type: cell-based; conditions: Homo sapiens
How it was run: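 Compounds were dispensed directly onto seeded cells and incubated for 5 days, then plates were equilibrated to room temperature for about 30 minutes before luminescence reading. Signals were expressed as percent of the mean DMSO control and fitted with a four-parameter logistic curve.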

KRAS G13D = KRAS G13D (Homo sapiens, UniProt P01116+P62937, G13D); assay: Disruption of BRAF RBD interaction with Ras (FRET / MOA assay, with Cyclophilin A); type: biochemical; conditions: KRAS G13D; read-out: KRAS G13D FRET data IC50
Chain of KRAS G13D (P01116 1-169 isoform P01116-2 G13D limits assumed): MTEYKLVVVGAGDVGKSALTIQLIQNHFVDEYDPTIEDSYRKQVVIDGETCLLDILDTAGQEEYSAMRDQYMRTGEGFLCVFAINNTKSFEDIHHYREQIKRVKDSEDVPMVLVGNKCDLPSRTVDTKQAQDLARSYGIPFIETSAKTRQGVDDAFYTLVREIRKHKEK
Chain of KRAS G13D (P62937 whole entry): as the sequence (P62937 whole entry) above
How it was run: (§2)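 Biochemical TR-FRET disruption assay: nucleotide-loaded K-Ras with Cyclophilin A and a BRAF RBD construct, compound titrated over 10 points from 30 μM (final).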

KRAS WT = KRAS WT (Homo sapiens, UniProt P01116+P62937); assay: as above; type: biochemical; conditions: KRAS WT; read-out: KRAS WT FRET data IC50
Chain of KRAS WT (P01116 1-169 isoform P01116-2 limits assumed): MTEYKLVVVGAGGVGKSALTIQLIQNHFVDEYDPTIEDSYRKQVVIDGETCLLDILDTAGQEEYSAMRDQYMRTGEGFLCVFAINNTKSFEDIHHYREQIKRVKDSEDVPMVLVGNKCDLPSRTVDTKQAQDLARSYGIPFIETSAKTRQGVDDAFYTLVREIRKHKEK
Chain of KRAS WT (P62937 whole entry): as the sequence (P62937 whole entry) above
How it was run: as §2

KRAS G12S = KRAS G12S (Homo sapiens, UniProt P01116+P62937, G12S); assay: as above; type: biochemical; conditions: read-out: KRAS G12S FRET data, IC50
Chain of KRAS G12S (P01116 1-169 isoform P01116-2 G12S limits assumed): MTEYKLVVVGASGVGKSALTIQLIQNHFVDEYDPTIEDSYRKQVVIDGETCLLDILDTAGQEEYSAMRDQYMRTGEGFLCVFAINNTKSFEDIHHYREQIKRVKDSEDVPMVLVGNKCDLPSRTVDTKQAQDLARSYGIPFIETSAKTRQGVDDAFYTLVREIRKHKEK
Chain of KRAS G12S (P62937 whole entry): as the sequence (P62937 whole entry) above
How it was run: as §2

KRAS G12C = KRAS G12C (Homo sapiens, UniProt P01116+P62937, G12C); assay: as above; type: biochemical
Chain of KRAS G12C (P01116 1-169 isoform P01116-2 G12C): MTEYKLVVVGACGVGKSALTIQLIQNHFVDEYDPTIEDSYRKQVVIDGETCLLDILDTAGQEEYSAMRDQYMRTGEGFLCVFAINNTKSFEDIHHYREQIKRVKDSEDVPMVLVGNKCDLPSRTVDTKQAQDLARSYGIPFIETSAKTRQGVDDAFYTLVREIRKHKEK
Chain of KRAS G12C (P62937 whole entry): as the sequence (P62937 whole entry) above
How it was run: as §2

KRAS G12D = KRAS G12D (Homo sapiens, UniProt P01116+P62937, G12D); assay: as above; type: biochemical; conditions: read-out: KRAS G12D FRET data, IC50
Chain of KRAS G12D (P01116 1-169 isoform P01116-2 G12D limits assumed): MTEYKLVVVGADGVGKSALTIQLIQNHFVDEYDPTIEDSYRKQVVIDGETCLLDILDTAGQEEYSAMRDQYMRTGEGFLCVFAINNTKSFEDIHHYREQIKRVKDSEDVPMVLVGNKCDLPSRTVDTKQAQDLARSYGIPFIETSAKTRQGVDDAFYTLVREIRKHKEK
Chain of KRAS G12D (P62937 whole entry): as the sequence (P62937 whole entry) above
How it was run: as §2

NRAS G12C = NRAS G12C (Homo sapiens, UniProt P01111+P62937, G12C); assay: as above; type: biochemical; conditions: NRAS G12C; read-out: NRAS G12C FRET data IC50
Chain of NRAS G12C (P01111 whole entry G12C): as the sequence (P01111 whole entry Q61K) above, with G12C, K61Q counted along it
Chain of NRAS G12C (P62937 whole entry): as the sequence (P62937 whole entry) above

KRAS G12V = KRAS G12V (Homo sapiens, UniProt P01116+P62937, G12V); assay: as above; type: biochemical; conditions: KRAS G12V; read-out: KRAS G12V FRET data IC50
Chain of KRAS G12V (P01116 1-169 isoform P01116-2 G12V limits assumed): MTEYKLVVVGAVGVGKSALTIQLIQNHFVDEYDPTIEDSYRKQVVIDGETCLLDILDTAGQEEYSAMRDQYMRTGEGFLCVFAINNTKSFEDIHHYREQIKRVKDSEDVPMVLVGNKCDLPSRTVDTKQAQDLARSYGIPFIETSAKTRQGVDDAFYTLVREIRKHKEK
Chain of KRAS G12V (P62937 whole entry): as the sequence (P62937 whole entry) above
How it was run: as §2

KRAS G13C = KRAS G13C (Homo sapiens, UniProt P01116+P62937, G13C); assay: as above; type: biochemical
Chain of KRAS G13C (P01116 1-169 isoform P01116-2 G13C): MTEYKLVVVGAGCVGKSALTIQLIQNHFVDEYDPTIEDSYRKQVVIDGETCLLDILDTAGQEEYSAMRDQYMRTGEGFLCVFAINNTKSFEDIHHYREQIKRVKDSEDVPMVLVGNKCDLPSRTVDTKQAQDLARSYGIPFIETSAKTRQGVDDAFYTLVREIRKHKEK
Chain of KRAS G13C (P62937 whole entry): as the sequence (P62937 whole entry) above
How it was run: as §2

[1] = read-out: KRAS G12C FRET data, IC50
[2] = read-out: KRAS G13C FRET data, IC50

Chain of NRAS WT (P01111 whole entry): as the sequence (P01111 whole entry Q61K) above, with K61Q counted along it
Chain of NRAS WT (P62937 whole entry): as the sequence (P62937 whole entry) above

| Compound | IC50 (NRAS WT) | IC50 (NRAS Q61K) | IC50 (KRAS Q61H) | IC50 (NRAS Q61R) | IC50 (NCI-H358 (K-Ras G12C); NCI-H358, H358, K-Ras G12C, read-out: Additional H358 Cell Viability assay data (K-Ras G12C, IC50)) | IC50 (KRAS G12C; KRAS G12C, read-out: KRAS G12C FRET data IC50) | IC50 (KRAS G13C; KRAS G13C, read-out: KRAS G13C FRET data IC50) | IC50 (NCI-H358 (K-Ras G12C); NCI-H358, 120 h, 5-day treatment, read-out: H358 Cell Viability assay data (K-Ras G12C, IC50)) | IC50 (KRAS G13D) | IC50 (KRAS WT) | IC50 (KRAS G12S) | IC50 (KRAS G12C; [1]) | IC50 (KRAS G12D) | IC50 (NRAS G12C) | IC50 (KRAS G12V) | IC50 (KRAS G13C; [2]) |
| --- | --- | --- | --- | --- | --- | --- | --- | --- | --- | --- | --- | --- | --- | --- | --- | --- |
| CCn1c(-c2cc(N3CCN(C)CC3)cnc2[C@H](C)OC)c2c3cc(ccc31)-c1csc(n1)C[C@H](NC(C)=O)C(=O)N1CCC[C@H](N1)C(=O)OCC(C)(C)C2 [Example A321] | 100 to 1000 nM | 100 to 1000 nM | 100 to 1000 nM | 100 to 1000 nM |  |  |  | 100 to 1000 nM | 100 to 1000 nM | 100 to 1000 nM | 100 to 1000 nM | 10 to 100 nM | 100 to 1000 nM | 10 to 100 nM | 100 to 1000 nM | 100 to 1000 nM |
| CCn1c(-c2cccnc2[C@H](C)OC)c2c3cc(ccc31)-c1cc(O)cc(c1)C[C@H](NC(=O)C(C)Cc1ccncc1)C(=O)N1CCC[C@H](N1)C(=O)OCC(C)(C)C2 (some centres unmarked) [Example A179] | 100 to 1000 nM | 1000 to 10000 nM | 100 to 1000 nM | 1000 to 10000 nM |  |  |  |  |  |  |  |  |  |  |  |  |
| CCn1c(-c2cc(N3CCN(C)CC3)cnc2[C@H](C)OC)c2c3cc(ccc31)-c1csc(n1)C[C@H](NC(C)=O)C(=O)N1CCC[C@H](N1)C(=O)OCC(C)(C)C2 (atropisomer, axis not shown) [Example A340] | > 10000 nM | > 10000 nM | > 10000 nM | > 10000 nM |  |  |  |  | > 10000 nM | > 10000 nM | > 10000 nM | > 10000 nM | > 10000 nM | > 10000 nM | > 10000 nM | > 10000 nM |
| CCn1c(-c2cccnc2[C@H](C)OC)c2c3cc(ccc31)-c1cc(O)cc(c1)C[C@H](NC(=O)[C@H](C(C)C)N(C)C(=O)[C@H]1[C@@H]3CNC[C@@H]31)C(=O)N1CCC[C@H](N1)C(=O)OCC(C)(C)C2 [Example A163] | 100 to 1000 nM | 1000 to 10000 nM | 100 to 1000 nM | 1000 to 10000 nM |  |  |  |  |  |  |  |  |  |  |  |  |

Second part, led by results:

| IC50 (NRAS WT) | IC50 (NRAS Q61K) | IC50 (KRAS Q61H) | IC50 (NRAS Q61R) | IC50 (NCI-H358 (K-Ras G12C); NCI-H358, H358, K-Ras G12C, read-out: Additional H358 Cell Viability assay data (K-Ras G12C, IC50)) | IC50 (KRAS G12C; KRAS G12C, read-out: KRAS G12C FRET data IC50) | IC50 (KRAS G13C; KRAS G13C, read-out: KRAS G13C FRET data IC50) | Compound | IC50 (NCI-H358 (K-Ras G12C); NCI-H358, 120 h, 5-day treatment, read-out: H358 Cell Viability assay data (K-Ras G12C, IC50)) | IC50 (KRAS G13D) | IC50 (KRAS WT) | IC50 (KRAS G12S) | IC50 (KRAS G12C; [1]) | IC50 (KRAS G12D) | IC50 (NRAS G12C) | IC50 (KRAS G12V) | IC50 (KRAS G13C; [2]) |
| --- | --- | --- | --- | --- | --- | --- | --- | --- | --- | --- | --- | --- | --- | --- | --- | --- |
|  | 10 to 100 nM | 10 to 100 nM | 10 to 100 nM | 100 to 1000 nM | 10 to 100 nM | 100 to 1000 nM | C=CC(=O)N1CC2(CCN2C(=O)N(C)[C@H](C(=O)N[C@H]2Cc3nc(n(C)n3)-c3ccc4c(c3)c(c(-c3cccnc3[C@H](C)OC)n4CC)CC(C)(C)COC(=O)C3CCCN(N3)C2=O)C(C)C)C1 (some centres unmarked) [Example A612] |  | 100 to 1000 nM | 100 to 1000 nM | 100 to 1000 nM |  | 100 to 1000 nM | < 10 nM | 100 to 1000 nM |  |
| 10 to 100 nM | < 10 nM | < 10 nM | 10 to 100 nM |  |  |  | CCn1c(-c2cccnc2[C@H](C)OC)c2c3cc(ccc31)-c1csc(n1)C[C@H](NC(=O)[C@H](C(C)C)N(C)C(=O)N1[C@H](C)COC[C@H]1C)C(=O)N1CCC[C@H](N1)C(=O)OCC(C)(C)C2 (atropisomer, axis not shown) [Example A275] |  |  |  |  |  |  |  |  |  |
| 100 to 1000 nM | 100 to 1000 nM | 100 to 1000 nM | 1000 to 10000 nM |  |  |  | CCn1c(-c2cccnc2[C@H](C)OC)c2c3cc(ccc31)-c1cc(O)cc(c1)C[C@H](NC(=O)[C@@H]1[C@H](C)CCN1C(C)=O)C(=O)N1CCC[C@H](N1)C(=O)OCC(C)(C)C2 [Example A144] |  |  |  |  |  |  |  |  |  |
